Results as given in the supplement of paper PMC10307832.

Key:
Assay in all cases: relative viability (nuclei count vs DMSO), 5 days (fraction); higher = more cells survive
[1] = compound: O=C(C[C@H]1NCCC[C@@H]1O)Cn1cnc2cc(Br)c(Cl)cc2c1=O (racemic) [Halofuginone] + CC(C)C[C@H](NC(=O)[C@H](Cc1ccccc1)NC(=O)c1cnccn1)B(O)O [Bortezomib] (partner 0.002 µM)
In short: (§1)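 After 5 days of treatment, lung cancer cells in 1536-well plates were fixed and stained in a single step (final 0.05% Triton X-100, 1% formaldehyde, 1 ug/ml Hoechst) and their nuclei counted on 4× images. Treatment had been applied by pin tool the day after seeding as one drug alone or as a fixed anchor-drug dose with five library-drug doses (not always all listed) in √10 steps. Relative viability is the nuclei count of treated wells divided by that of vehicle wells, and values are medians of duplicate plates.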

Decitabine + Olaparib = compound: Nc1ncn([C@H]2C[C@H](O)[C@@H](CO)O2)c(=O)n1 [Decitabine] + O=C(c1cc(Cc2n[nH]c(=O)c3ccccc23)ccc1F)N1CCN(C(=O)C2CC2)CC1 [Olaparib] (partner 8 µM)
In short: as §1

[2] = compound: O=C(C[C@H]1NCCC[C@@H]1O)Cn1cnc2cc(Br)c(Cl)cc2c1=O (racemic) [Halofuginone] + Nc1nc2[nH]cc(CCc3ccc(C(=O)N[C@@H](CCC(=O)O)C(=O)O)cc3)c2c(=O)[nH]1 [Pemetrexed] (partner 0.2 µM)
In short: as §1

Cediranib + Dasatinib = compound: COc1cc2c(Oc3ccc4[nH]c(C)cc4c3F)ncnc2cc1OCCCN1CCCC1 [Cediranib] + Cc1nc(Nc2ncc(C(=O)Nc3c(C)cccc3Cl)s2)cc(N2CCN(CCO)CC2)n1 [Dasatinib] (partner 0.075 µM)
In short: as §1

Cell Line	relative viability ([1]; first compound 0.001 µM)	relative viability ([1]; first compound 0.003162 µM)	relative viability ([1]; first compound 0.01 µM)	relative viability ([1]; first compound 0.03162 µM)	relative viability ([1]; first compound 0.1 µM)	relative viability (Decitabine + Olaparib; first compound 0.04 µM)	relative viability (Decitabine + Olaparib; first compound 0.1265 µM)	relative viability (Decitabine + Olaparib; first compound 0.4 µM)	relative viability (Decitabine + Olaparib; first compound 1.265 µM)	relative viability (Decitabine + Olaparib; first compound 4 µM)	relative viability ([2]; first compound 0.001 µM)	relative viability ([2]; first compound 0.003162 µM)	relative viability ([2]; first compound 0.01 µM)	relative viability ([2]; first compound 0.03162 µM)	relative viability ([2]; first compound 0.1 µM)	relative viability (Cediranib + Dasatinib; first compound 0.04 µM)	relative viability (Cediranib + Dasatinib; first compound 0.1265 µM)	relative viability (Cediranib + Dasatinib; first compound 0.4 µM)	relative viability (Cediranib + Dasatinib; first compound 1.265 µM)	relative viability (Cediranib + Dasatinib; first compound 4 µM)
HCC-78	0.653	0.42	0.445	0.543	0.369	0.458	0.433	0.382	0.272	0.241	0.906	0.926	0.885	0.937	0.889	0.376	0.363	0.405	0.29	0.406
HCC-366	0.948	1.06	1.04	0.994	0.397	0.11	0.0915	0.066	0.0346	0.0247	0.157	0.167	0.156	0.135	0.12	0.649	0.622	0.553	0.636	0.711
HCC-827	1.04	1.03	0.955	0.998	0.918	0.146	0.279	0.218	0.182	0.205	0.238	0.237	0.266	0.27	0.239	0.284		0.226	0.309	0.275
HOP-62	0.679	0.702	0.62	0.632	0.522	0.108	0.141	0.0882	0.0978	0.132	0.326	0.293	0.333	0.306	0.295	0.698	0.909	0.577	0.617	0.77
IA-LM	0.894	0.741	0.664	0.533	0.0776	0.288	0.197	0.139	0.129	0.129										
LC-2-ad	1.3	1.08	0.972	1.01	0.667	0.441	0.402	0.397	0.343	0.274	0.273	0.305	0.251	0.246	0.269	0.555	0.654	0.427	0.496	0.403
LK-2						0.497	0.38	0.297	0.211	0.24	0.25	0.212	0.294	0.249	0.241	0.283	0.224	0.331	0.212	0.262
NCI-H358						0.27	0.182	0.165	0.1	0.106	0.171	0.167	0.167	0.154	0.138	0.174	0.239	0.194	0.137	0.173
NCI-H522						0.544	0.564	0.544	0.548	0.47	1.08	0.968	1.03	1.11	0.918	0.827	0.77	0.85	0.965	0.811
NCI-H727	0.981	0.798	0.927	0.856	0.468	0.643	0.54	0.685	0.55	0.481								0.358	0.337	0.367
NCI-H1299	1.08	1.02	1	0.986	0.851	0.963	0.962	0.884	0.655	0.578										
NCI-H1395						0.518	0.432	0.465	0.438	0.418	0.873	0.822	0.991	0.696	0.571	0.44	0.45	0.37	0.374	0.405
NCI-H1563	0.708	0.885	0.686	0.585	0.515						0.782	0.788	0.825	0.685	0.585	0.494	0.897	0.498	0.513	0.492
NCI-H1623																0.618		0.523	0.463	0.536
NCI-H1648						0.679	0.516	0.484	0.424	0.301	0.666	0.732	0.92	0.796	0.91					
NCI-H1703	0.363	0.333	0.305	0.282	0.224	0.21	0.21	0.287	0.145	0.166										
NCI-H1793						0.455	0.307	0.281	0.19	0.212	0.906	0.734	0.7	0.843	0.515	0.317	0.415	0.398		0.501
NCI-H1944						0.281	0.307	0.255	0.192	0.207	0.611	0.62	0.579	0.586	0.496	0.216	0.227	0.221	0.193	0.236
NCI-H2170						0.271	0.201	0.216	0.137	0.134	0.271	0.202	0.273	0.25	0.275	0.523	0.713	0.605	0.384	0.566
NCI-H2342						0.539	0.368	0.433	0.351	0.249	0.801	0.702	0.774	0.76	0.727	0.334	0.392	0.288	0.295	0.327
SK-MES-1						0.288	0.362	0.299	0.179	0.244	1.07	0.983	0.877	0.74	0.253	0.37	0.47	0.413	0.427	0.252
SW 900						0.563	0.365	0.329	0.228	0.208	0.483	0.505		0.432	0.445	0.629	0.669	0.594	0.654	0.524
